Assay results taken from patent US7943606B2, “Compositions and methods to control abnormal cell growth” (CanCure Laboratories, LLC, priority 2005, dated 2011).
Where a name gives a salt, the structure may show the parent alone. Read-outs that look alike come from different tables or passages of the source.

Key:
MEL-24 cells = assay: Viability of MEL-24 melanoma cells (MTT assay); assay type: cell-based; conditions: Homo sapiens; for inhibition at 100 µM: 72 hours, read-out: Decrease in cell number (maximal decrease = 100%), MEL-24
Description: (§1) To quantify cell death, around the time when significant and characteristic morphological changes took place, cells were pulse-labeled for 10 minutes with [^3H]thymidine to measure DNA activity as described elsewhere [Tomono, M. and Kiss, Z. (1995), “Ethanol enhances the stimulatory effects of insulin and insulin-like growth factor-I on DNA synthesis in NIH 3T3 fibroblasts,” Biochem. Biophys. Res. Commun. 208, 63-67]. Also, cells were collected as suspensions using trypsin, an established method in cell biology, followed by re-plating of cells in fresh tissue culture medium. If no viable cells were obtained after one week in culture, it meant that the cells at the time of re-plating were dead. Survival values obtained with untreated cells were considered 100%. For the determination of relative number of viable cells after treatments, in most cases the MTT assay was used. This calorimetric assay is based on the ability of living cells, but not dead cells, to reduce 3-(4,5-dimethyl thiazol-2-yl)-2,5-diphenyltetrazolium bromide [Carmichael, J, De Graff, W. G., Gazdar, A. F., Minna, J. D. and Mitchell, J. B. (1987), “Evaluation of tetrazolium-based semi-automated calorimetric assay: Assessment of chemosensitivity testing,” Cancer Res. 47, 936-942]. For this assay, cells were plated in 96-well plates, and the MTT assay was performed both in untreated and treated cell cultures. The MTT assay also was performed at the start of treatments to allow assessment of proliferation rates in the control and treated cell cultures.
(§2) NIH3T3, T47D, A-431, HT-29, and MEL-28 cells were cultured as indicated earlier. CaOV-3 human ovarian cancer cells were cultured in DMEM containing 10% FBS. ZR-75-1 human estrogen receptor-positive breast cancer cells were maintained in RPMI 1640 medium supplemented with 10% FBS. HTB-157 human fetal fibroblasts, MEL-24 human malignant melanoma cells, Hep G2 human hepatoblastoma cells, and CaCO-2 human colon adenocarcinoma cells were maintained in Eagles's MEM containing 10% FBS. MB-231 human estrogen receptor-negative breast cancer cells were maintained in Leibovitz's L-15 medium supplemented with 10% FBS. Cells were seeded into 96-well plates and treated at ˜70-90% confluency. Two hours prior to treatments the medium was changed for fresh 10% serum medium, and then the cells were incubated for 10 days in the absence (□) or presence of 50 μM CCDTHT ? or 100 μM CCDTHT (▪). The medium was changed and the cells were re-treated on days 3 and 6. The MTT assay was used to determine cell viability on day 10. The data, shown in FIG. 6, are the mean±std. dev. of 8 incubations in one experiment. (The experiment was repeated twice with similar results).
(§3) NIH 3T3, MEL-28, MEL-24, CaOV-3, ZR-75-1, and T47D cells were cultured as described above. The OVCAR human ovarian cancer cells were cultured in DMEM containing 10% FBS. Cells were seeded into 96-well plates and used at ˜60-80% confluency. Two hours before treatments the medium was changed for fresh 10% serum medium, and then the cells were incubated for 72 hours in the absence or presence of 100 μM of each of CC compounds as listed in TABLE 3. The inhibitory effects of CC compounds on cell proliferation are expressed as percent decrease compared to untreated cell cultures (the greater the number, the greater the inhibitory effect of the CC compound). […] Also, for the treatment of ovarian cancer and breast cancer, CCDTHT seems to be the best choice (although in this experiment CCompounds21-26 were not tested).

OVCAR cells = assay: Viability of OVCAR ovarian cancer cells (MTT assay); assay type: cell-based; conditions: Homo sapiens, 72 hours, read-out: Decrease in cell number (maximal decrease = 100%), OVCAR
Description: as §1, §3

T47D cells = assay: Viability of T47D breast cancer cells; assay type: cell-based, human; conditions: for inhibition at 100 µM / IC50: Homo sapiens, T47D; for inhibition at 100 µM: read-out: Decrease in cell number (maximal decrease = 100%), T47D
Description: as §1
About 40% confluent cultures of T47D cells, cultured in 12-well plates in RPMI 1640 medium supplemented with 0.2 IU bovine insulin and 10% FBS, were either untreated (FIG. 4A), or were treated with 100 μM CCDTHT (CCompound3) for 72 hours (FIG. 4B).
as §2, with “experiment.” for “experiment. (The experiment was repeated twice with similar results).”
The MRC-5 cell line is derived from normal lung tissue of a […] fetus. MRC-5 cells were maintained and treated in Eagles Medium with Hanks' BSS containing 10% fetal bovine serum. The T47D cells were maintained and treated in RPMI 1640 medium supplemented with 0.2 IU bovine insulin and 10% fetal bovine serum. The CaOV-3 human ovarian cancer cells were cultured in Dulbecco's modified Eagle's medium containing 10% fetal bovine serum. The cells were seeded in 96-well plates either at 10,000 cells per well or 30,000 cells per well to examine the antiproliferative and cytotoxic effects of various CC compounds, respectively. The cells were incubated for 24 hours, then the medium was changed followed by the treatments of cultures 2 hours after the medium change. At this point, cell cultures seeded at 10,000 cells per well and 30,000 cells per well were 25-35% and 80-90% confluent, respectively.

ZR-75-1 cells = assay: Viability of ZR-75-1 breast cancer cells (MTT assay); assay type: cell-based, human; conditions: for inhibition at 100 µM: Homo sapiens, ZR-75-1, 72 hours, read-out: Decrease in cell number (maximal decrease = 100%), ZR-75-1
Description: as §1, §2, §3

| Structure (SMILES) | inhibition at 100 µM (MEL-24 cells) | inhibition at 100 µM (OVCAR cells) | inhibition at 100 µM (T47D cells; 100 μM, 72 hours) | inhibition at 100 µM (ZR-75-1 cells) | cytotoxicity at 100 µM (MEL-24 cells; 240 h, 10 days, MTT, read-out: reduction in the number of viable cells, MEL-24) | DNA synthesis after re-seeding treated T47D cells (T47D cells; 100 μM 72 hours, re-seeded, 96 hours later) | morphology / cell death, T47D (T47D cells; 100 μM, 72 hours, 12-well plates) | sensitivity to the inhibitory actions, T47D (T47D cells; 50 and 100 μM, 10 days, MTT) | IC50 (T47D cells; 10,000 cells per well (25-35% confluent), 72 hours, MTT, read-out: IC50 values, Antiproliferative, T47D) | IC50 (T47D cells; 30,000 cells per well (80-90% confluent), 72 hours, MTT, read-out: IC50 values, Cytotoxic, T47D) | sensitivity to the inhibitory actions, ZR-75-1 (ZR-75-1 cells; 50 and 100 μM, 10 days, MTT) |
| --- | --- | --- | --- | --- | --- | --- | --- | --- | --- | --- | --- |
| CC[N+](C)(C)CCCOCc1ccc2sc3ccccc3c(=O)c2c1 [CCcompound11, N,N-Dimethyl-N-ethyl-3-[(9-oxo-9H-thioxanthen-2-yl)methoxy]-propane-1-aminium iodide] | 20% | 62% | 59% | 75% |  |  |  |  |  |  |  |
| CC[N+](CC)(CCCO)Cc1ccc2sc3ccccc3c(=O)c2c1 [CCcompound16, 3-Hydroxy-N,N-diethyl-N-[(9-oxo-9H-thioxanthen-2-yl)methyl]-propane-1-aminium bromide] | 0% | 0% | 48% | 39% |  |  |  |  |  |  |  |
| C[N+](C)(CCCO)Cc1ccc2sc3ccccc3c(=O)c2c1 [CCcompound15, 3-Hydroxy-N,N-dimethyl-N-[(9-oxo-9H-thioxanthen-2-yl)methyl]propane-1-aminium bromide] | 0% | 26% | 35% | 41% |  |  |  |  |  |  |  |
| CC[N+](CC)(CC)CCCOCc1ccc2sc3ccccc3c(=O)c2c1 [CCcompound9, N,N,N-Triethyl-3-[(9-oxo-9H-thioxanthen-2-yl)methoxy]-propane-1-aminium iodide] | 4% | 41% | 52% | 70% |  |  |  |  |  |  |  |
| CC[N+](C)(CC)CCOCc1ccc2sc3ccccc3c(=O)c2c1.[I-] [CCDTHT, N,N-diethyl-N-methyl-2-[(9-oxo-9H-thioxanthen-2-yl)methoxy]-ethanaminium iodide] | 15% | 63% | 61% | 74% | ≤ 50% | no DNA synthesis could be detected | practically all cells rounded up | very sensitive | 47 µM | 66 µM | very sensitive |
| CC[N+](CC)(CCO)Cc1ccc2sc3ccccc3c(=O)c2c1 [CCcompound14, 2-Hydroxy-N,N-Diethyl-N-[(9-oxo-9H-thioxanthen-2-yl)methyl]-ethanaminium bromide] | 21% | 65% | 58% | 53% |  |  |  |  |  |  |  |
| C[N+](C)(CCO)Cc1ccc2sc3ccccc3c(=O)c2c1 [CCcompound13, 2-Hydroxy-N,N-dimethyl-N-[(9-oxo-9H-thioxanthen-2-yl)methyl]-ethanaminium bromide] | 12% | 27% | 47% | 48% |  |  |  |  |  |  |  |
| CC[NH+](CC)CCCOCc1ccc2sc3ccccc3c(=O)c2c1 [CCcompound12, 2-{[3-(Diethylamino)propoxy]meth-yl}-9H-thioxanthen-9-one hydrochloride] | 73% | 30% | 48% | 17% |  |  |  |  |  |  |  |
| CC[N+](C)(CC)CCCOCc1ccc2sc3ccccc3c(=O)c2c1 [CCcompound10, N,N-Diethyl-N-methyl-3-[(9-oxo-9H-thioxanthen-2-yl)methoxy]-propane-1-aminium iodide] | 15% | 38% | 51% | 65% |  |  |  |  |  |  |  |
